Experimental data from patent publication US20160235866A1, “MRI CONTRAST AGENTS FOR CELL LABELING” (THE GOVERNING COUNCIL OF THE UNIVERSITY OF TORONTO, priority 2013, published 2016).
Entries after “also recorded” stand apart in the source; their conditions may differ.

What was measured:
[1] = system: MDA-MB-231 breast cancer cell pellets; assay: MRI T1 and T2 time measurements of labeled cell pellets; format: cell-based, Human; details: MDA-MB-231 cell pellets after 83 μM incubation for 2 hours
Procedure: (§1) Human breast cancer cells MDA-MB-231 were grown at 37° C. with 5% CO2 in 1640-RPMI medium supplemented with 10% fetal bovine serum and 0.5% penicillin streptomycin. Contrast agents were quantified for manganese content by flame AAS prior to cell labeling. MnTCP was dissolved in ultrapure water and MnTriAMP was dissolved in DMSO to give 17 mM stock solutions. The stock solutions were added to the medium with the cells resulting in 83 μM incubation of 2-MnTriAMP or 1-MnTCP for 2 hours. The medium was removed and the cells were washed with fresh medium 5× and then were harvested by washing with PBS followed by addition of 0.05% trypsin EDTA to detach the cells. Viability was assessed directly after labeling with trypan blue exclusion test and observation of cell morphology by phase microscopy.
For MRI, cell pellets were formed by centrifugation at 440 g for 10 minutes. Subsequent MR was done with a T1-weighted 2D spin-echo image: TR=100 ms, TE=14.163 ms, 3 mm slice thickness, 0.5×0.5 mm in-plane resolution (FIG. 1).

[2] = system: Human breast cancer cells MDA-MB-231; assay: Viability by trypan blue exclusion test after cell labeling; format: cell-based; details: for Viability (%) (±SEM): 83 μM incubation, MDA-MB-231
Procedure: as §1

[3] = system: Human breast cancer cells MDA-MB-231; assay: Intracellular contrast agent concentration by GFAAS of cell digests; format: cell-based; details: for Mn / Mn content per cell relative to control: GFAAS of cell digests; for Mn: 83 μM incubation for 2 hours; for Mn content per cell relative to control: control = 1
Procedure: as §1
The intracellular contrast agent concentration was determined after cell labeling by centrifugation of a known number of cells followed by removal of the supernatant and digestion of the cells by addition of 1 M nitric acid (0.5 ml) and 30 min of heating at 70° C. Then 3 ml of ultrapure water was added to the digested cells, the mixture was filtered and then quantified by graphite furnace atomic absorption spectroscopy (GFAAS) shown in Table 3.

[4] = 0.47 T (20 MHz for 1H Larmor frequency), 37° C.; cited from earlier work

Molecule | T1 [1] [ms] | T2 [1] [ms] | Viability (%) (±SEM) ([2]; 0 hours after 2 h treatment) | Viability (%) (±SEM) ([2]; 3 days after 2 h treatment) | Mn [3] [mM/cell] | Mn content per cell relative to control [3] | relaxivity [4] [mM⁻¹ s⁻¹] | toxicity / cell viability after labeling (in words) ([2]; MDA-MB-231 after labeling) | cellular uptake (in words) ([3]; MDA-MB-231, compared to 1-MnTCP, from relaxation times and GFAAS data)
O=C(O)c1c2nc(c(C(=O)O)c3ccc([n-]3)c(C(=O)O)c3nc(c(C(=O)O)c4ccc1[n-]4)C=C3)C=C2.[Cl-].[Mn+3] [1-MnTCP, [5,10,15,20-tetrakis(carboxy)porphyrinato]manganese(III) chloride] | 1072.1 ± 28.0 | 108.1 ± 9.3 | 98 ± 1 | 80 ± 6 | 1.90E−13 | 33.22 |  |  | 
MnTPPS |  |  |  |  |  |  | ~12 |  | 
[5-carboxy-10,15,20-tris(acetoxymethylcarboxy)porphyrinato]manganese(III) [2-MnTriAMP] | 215.4 ± 12.1 | 66.7 ± 4.4 | 97 ± 2 | 87 ± 6 | 6.05E−13 | 105.83 |  | without affecting the cell viability | significant uptake; also recorded: sufficient cellular uptake and retention
